≈ marks a conversion by molar mass, not a printed value.
conditions: buffer; pH 7.4; 200.0 µM

SMILES	solubility kinetic [µg/mL]
O=C(CN1C(=O)NC2NC(=O)NC21)N/N=C/c1ccccc1F (stereo not given)	> 48
CCCCNC(=O)CSc1nc2ccc(C)cc2[nH]1	> 41.6
O=C(NC1CC2CCCC(C1)N2C(=O)Nc1cccc(F)c1)C1CC1 (stereo not given)	16.3 (≈ 47.2 µM)
CNC(=O)CSc1nc(-c2ccccc2)c(-c2ccccc2)o1	3.3 (≈ 10.2 µM)
COc1ccc(NC(=O)c2ccccc2)c([N+](=O)[O-])c1	2.1 (≈ 7.71 µM)
O=C1NC(=O)N(CCC2=CCCCC2)C(=O)/C1=C/c1cccs1	26.1 (≈ 79 µM)
CN1CCCN(Cc2ccccc2Br)CC1	35.3 (≈ 125 µM)
O=S(=O)(Nc1ncnc2sccc12)c1cccc(F)c1	> 46.4
CC(=O)c1ccc(N2CCN(C(=O)CCc3ccccc3)CC2)cc1	> 50.5
O=C(c1cccnc1Cl)N(Cc1ccccc1)Cc1ccccc1	39.5 (≈ 117 µM)
CN1CCN(C(=O)c2cc3ccccc3cc2O)CC1	> 40.5
CCNc1ccc(S(=O)(=O)N(C)C)cc1[N+](=O)[O-]	23.1 (≈ 84.5 µM)
O=C(N/N=C/c1ccccc1C(F)(F)F)c1ccc(O)cc1	> 46.2
CC12CN3CC(C)(CN(C1)C3c1ccc(F)cc1)C2 (stereo not given)	26.2 (≈ 101 µM)
OCCN1CCN(C(=S)Nc2ccc(SC(F)F)cc2)CC1	> 52.1
COCC(C)n1c(C)cc(C(=O)COC(=O)c2cccn2C)c1C (stereo not given)	> 49.9
CN1CCN(S(=O)(=O)c2ccc(Cl)cc2)CC1	37.8 (≈ 138 µM)
CC(C)C(=O)Nc1ncc(Cc2ccccc2Cl)s1	< 0.3
O=C(O)Cc1sc(NC2CCCCC2)nc1-c1ccc(Cl)cc1	> 52.6
CC(C)(C)CNc1cc(N2CCOCC2)ccc1[N+](=O)[O-]	1.8 (≈ 6.14 µM)
CCCn1cnc2c(oc3ccccc32)c1=O	> 34.2
Cc1cc(C(=O)NC(C)C2CC2)c(Cl)cc1Cl (stereo not given)	4.7 (≈ 17.3 µM)
CSc1ncccc1C(=O)Nc1ncc(C)s1	5.7 (≈ 21.5 µM)
CC1CCC(NC(=O)COC(=O)c2ccco2)CC1 (stereo not given)	> 39.8

SMILES	solubility kinetic [µg/mL]
COc1ccc(NS(=O)(=O)c2ccc3[nH]c(=O)[nH]c3c2)cc1OC	> 52.4
O=C(NCCCn1ccnc1)c1ccc(C(F)(F)F)cc1	> 44.6
Cc1cccc(N2CCN(C(=O)N3CCCCC3)CC2)c1C	26.3 (≈ 87.2 µM)
CC(C)Cc1csc(NC(=O)c2ccc(Br)cc2)c1C(=O)O	53.6 (≈ 140 µM)
N=c1oc2ccccc2cc1C(=O)NC1CCCCCC1	15.9 (≈ 55.9 µM)
COc1ccc(NC(=O)CCN2C(=O)c3ccccc3C2=O)c(OC)c1	21.8 (≈ 61.5 µM)
COc1cccc(C=Nc2ccc(N3CCOCC3)cc2)c1O	33.7 (≈ 108 µM)
N#CCNc1ccc([N+](=O)[O-])cc1C#N	30.3 (≈ 150 µM)
CC1(C)C(=O)Nc2ccccc2N1C(=O)COC(=O)c1cc(Cl)cc(Cl)c1	2.8 (≈ 6.88 µM)
O=C(COC(=O)/C=C/c1ccc(OC(F)F)cc1)Nc1ccc2[nH]c(=O)[nH]c2c1	5.3 (≈ 13.1 µM)
Cc1ccc(NC(=O)CC(C)CC(=O)NCc2ccccc2)cc1Cl (stereo not given)	< 0.4
O=C1CC2(CCCC2)CC(=O)N1c1ccccc1	> 36.5
CCN(Cc1ccncc1)C(=S)Nc1ccc(Cl)cc1	> 45.9
Cc1cccc(-c2noc(-c3ccccc3C(=O)NCc3ccco3)n2)c1	8.9 (≈ 24.8 µM)
O=C(CS(=O)(=O)c1ccc(F)cc1)NCc1ccccc1	16.2 (≈ 52.7 µM)
COc1cc2ccccc2cc1C(=O)NC1CCC(C)CC1 (stereo not given)	5 (≈ 16.8 µM)
C=CCc1ccccc1OCC(O)CNC1CCCC1.Cl (stereo not given)	> 46.8
Fc1cccc(NC(=S)Nc2cccc3ccccc23)c1	19.6 (≈ 66.1 µM)
Cc1ccnc(N2CCCC(C(=O)Nc3ccc(C)c(C)c3)C2)n1 (stereo not given)	1.4 (≈ 4.32 µM)
COC(=O)C1CCN(C(=O)c2ccc(Cl)c(S(=O)(=O)NCc3ccco3)c2)CC1	53.6 (≈ 122 µM)
O=C(CCc1nc2ccccc2s1)OCC(=O)c1ccc[nH]1	14.2 (≈ 45.2 µM)
COc1ccc(NC(=O)NC2(C)CCS(=O)(=O)C2)cc1 (stereo not given)	> 44.8
COc1ccc(NC2CCCN(C(=O)c3cccnc3)C2)cc1 (stereo not given)	> 46.7
Cc1ccc(C(=O)COc2nc(C)nc3ccccc23)cc1	4.3 (≈ 14.7 µM)

SMILES	solubility kinetic [µg/mL]
S=c1[nH]c2cnccc2n1Cc1ccccc1	5.7 (≈ 23.6 µM)
O=C(O)c1ccccc1-c1ccccc1C(=O)Nc1ccccc1-c1ccccc1	> 59
O=C(NC(=O)N1CCSCC1)c1c(Cl)cccc1Cl	> 47.9
c1csc(-c2cn3ccc4ccccc4c3n2)c1	10.7 (≈ 42.7 µM)
COC(=O)C1CCN(C(=O)/C=C/c2ccc3c(c2)OCO3)CC1	34 (≈ 107 µM)
CCS(=O)(=O)N1CCN(CC(=O)NC2CCCCC2)CC1.Cl	> 53.1
CSc1nsc(SCC(=O)Nc2ccc(C(=O)O)cc2)n1	> 51.2
COc1cc(OC)cc(C(=O)N[C@H](C(=O)Nc2c(C)n(C)n(-c3ccccc3)c2=O)C(C)C)c1	> 70
Cl.O=C(O)CC1(CC(=O)N2CCN(CCO)CC2)CCCC1	> 50.2
CSc1ccc(/C=C/C(=O)N2CCCN(C)CC2)cc1.Cl	44.1
Cc1cc(C(F)(F)F)nn1CC(=O)N(C)c1ccccc1	> 44.6
CC(C(=O)N1CCN(c2ccccc2)CC1)c1ccc([N+](=O)[O-])cc1 (stereo not given)	40.7 (≈ 120 µM)
C=CCNC(=O)C(=O)NCC1CCCN1CC (stereo not given)	> 35.9
Cc1ccc(NC(=O)C2CC(O)CN2C(=O)OCc2ccccc2)c(C)c1 (stereo not given)	37.2 (≈ 101 µM)
O=C(NCCNc1ccc([N+](=O)[O-])cc1Cl)c1ccccc1F	1.8 (≈ 5.33 µM)
Cc1cccc(NC(=O)C(c2ccccc2Cl)N2CCOCC2)c1 (stereo not given)	48.9 (≈ 142 µM)
N#Cc1ccccc1NC(=S)NC(=O)c1cccs1	30.7 (≈ 107 µM)
Cl.ClCCN1CCN(c2ccnc3cc(Cl)ccc23)CC1	> 57.5
Cc1cc(SCC(=O)NC2CCCC2)nc2ccccc12	8.8 (≈ 29.3 µM)
Cc1ccc(C)c(N2N=C(C(=O)O)CCC2=O)c1	> 36.9
COc1cc(/C=C(\C#N)C(N)=O)ccc1OCc1c(C)no[n+]1[O-]	14.6 (≈ 44.2 µM)
O=C1CN(S(=O)(=O)c2ccccc2)c2ccccc2N1	> 43.2
CC(C)(C)CN1CCN(Cc2cccnc2)CC1CCO (stereo not given)	> 43.7
COc1cc(C)nc(NC(=S)N(C)C(=O)c2ccccc2)n1	0.5 (≈ 1.58 µM)

SMILES	solubility kinetic [µg/mL]
CC1CCc2c(sc(NC(=O)C3=COCCO3)c2C(N)=O)C1 (stereo not given)	6.3 (≈ 19.5 µM)
O=C(COC(=O)COc1ccccc1F)Nc1cccc(S(=O)(=O)N2CCCCC2)c1	47.8 (≈ 106 µM)
Cc1[nH]c2ccccc2c1CCNC(=O)c1ccc2nccnc2c1	41.1 (≈ 124 µM)
Cl.OC12CC3C[C@H](C1)C(N1CCOCC1)[C@@H](C3)C2 (stereo not given in full)	36.8
O=C(O)c1cccc(OCCN2CCCC2=O)c1	34.6 (≈ 139 µM)
COc1ccccc1NC(=O)C(=O)N1CCCC1	35.3 (≈ 142 µM)
O=C(COC(=O)/C=C/c1ccc(C(F)(F)F)cc1)NCc1ccco1	35.7 (≈ 101 µM)
COc1ccc(OCC(=O)OC2CCCN(C)C2)cc1.Cl (stereo not given)	> 47.4
CC(=O)Nc1nc2c(C)c(Cl)ccc2s1	< 0.3
COC(OC)c1ccc(C#N)c(SCc2ccccc2)n1	9.4 (≈ 31.3 µM)
Cc1nn(CC(=O)NCc2ccccc2)c(=O)c2cccn12	> 44.4
CCCn1c(SCC(=O)NC)nc2sc3c(c2c1=O)CCC3	5.5 (≈ 16.3 µM)
C#Cc1cccc(NC(=O)C2CCN(C(C)=O)CC2)c1	> 40.5
Cc1c(-c2ccccc2)nc(N)c(C#N)c1-c1cccnc1	5 (≈ 17.5 µM)
COc1ccc(Cc2nc(C)cc(Cl)n2)cc1[N+](=O)[O-].Cl	> 49.5
O=C(CSc1ccccc1F)NCCCN1CCCC1=O	> 46.6
CCc1nnc(NC(=O)C2(C)COC(c3ccccc3)OC2)s1 (stereo not given)	> 50
O=C(O)c1cccnc1Sc1ccc(Br)cc1	> 46.5
COc1cc(C(=O)N2C(=O)CCC2=O)cc(OC)c1OC	35.4 (≈ 121 µM)
CCOC(=O)c1sc(=NC(=O)c2ccc(OC(C)C)cc2)n(C)c1C	< 0.4
NC(CCCCCP(=O)(c1ccccc1)c1ccccc1)C(=O)O (stereo not given)	40.4 (≈ 117 µM)
Brc1ccc(CN2CCCCCC2)cc1	12.5 (≈ 46.6 µM)
Cc1cc(C(=O)COC(=O)C23CC4CC(CC(O)(C4)C2)C3)c(C)n1C	> 51.8
CC(C#N)Sc1ncnc2sc(-c3ccccc3)cc12 (stereo not given)	0.8 (≈ 2.69 µM)

SMILES	solubility kinetic [µg/mL]
CCOc1nc(Nc2ccccc2F)nc(OCC)n1	10.4 (≈ 37.4 µM)
O=[N+]([O-])c1ccc(NC(=S)N2CCN(c3ccccn3)CC2)cc1	1.4 (≈ 4.08 µM)
O=C(NCc1ccco1)C(=O)N1CCCC1	> 33.3
O=S(=O)(CC(c1ccccc1)N1CCCCC1)c1ccc(Cl)cc1 (stereo not given)	4.2 (≈ 11.5 µM)
O=C(COC(=O)/C=C/c1cccs1)Nc1ccc(Cl)cc1F	3.7 (≈ 10.9 µM)
COc1ccc(OCC(O)CN(C)C(=O)C(C)Oc2ccccc2)cc1 (stereo not given)	> 53.9
O=C(NC1CCCCC1)c1cc(-c2ccccc2Cl)on1	< 0.3
Nc1nc(F)cc(NCc2ccccc2)n1	> 32.7
CC(=O)CCN1C(=O)NC2(CCCc3ccccc32)C1=O (stereo not given)	> 42.9
COc1ccc(NC(C)=O)c(C)c1	> 26.9
O=C1NC(=Nc2ccccc2)SC1Cc1ccccc1 (stereo not given)	4.6 (≈ 16.3 µM)
c1ccc(-c2cc(-c3ccccc3)on2)cc1	< 0.5
CC(=O)Nc1nonc1-c1nc2ccccc2n1C	3.1 (≈ 12.1 µM)
NC(=O)C1CCN(C(=O)c2ccc(Cl)c(S(=O)(=O)N3CCCCCC3)c2)CC1	> 64.2
CCC(CC)c1nc2ccccc2c(=O)[nH]1	> 32.4
CN=C1S/C(=C\c2c(OC)cc(OC)cc2OC)C(=O)N1C	1.1 (≈ 3.41 µM)
O=C(NCc1ccco1)C(=O)NCC(c1ccco1)N1CCOCC1 (stereo not given)	47.2 (≈ 136 µM)
O=S(=O)(Nc1ccccc1F)c1ccc(Cl)nc1	> 43
O=C(Cc1ccc(Cl)cc1)Nc1ccccn1	> 37
CCCCC12CN3CC(C)(CN(C1)C3c1ccc([N+](=O)[O-])o1)C2=O (stereo not given)	> 50
O=C1CN(C(=O)COC(=O)c2c(F)cccc2Cl)c2ccccc2N1	50 (≈ 138 µM)
CCN(c1ccccc1)S(=O)(=O)c1cc(C(=O)NCC(c2ccco2)N2CCCCC2)ccc1C (stereo not given)	18.2 (≈ 36.7 µM)
C=CCNc1nc(N)c([N+](=O)[O-])c(NCc2ccccc2)n1	0.7 (≈ 2.33 µM)
CCN1CCN(C(CNS(=O)(=O)c2cccs2)c2cccnc2)CC1 (stereo not given)	49.3 (≈ 130 µM)
